Laboratory results: ChEMBL document CHEMBL1129378, “Octanol-, chloroform-, and propylene glycol dipelargonat-water partitioning of morphine-6-glucuronide and other related opiates” (J Med Chem, 1996)

Assays:
[1] = physchem; conditions: octanol/water
Description: Partition coefficient of anion (logD)

[2] = physchem; conditions: octanol/water; remark: listed apart in the source
Description: (§1) Partition coefficient of Zwitterion (logD)

[3] = physchem
Description: Sugar COOH pKa of compound

[4] = physchem; conditions: buffer, pH 7.4
Description: Log D of compound; LogD at pH 7.4

[5] = octanol/water
Description: Partition coefficient of cation (logD)

[6] = physchem; remark: listed apart in the source
[7] = physchem; remark: listed apart in the source
[8] = Phenolic pKa of compound with […] NaCl; assay type: physicochemical
[9] = octanol/water; remark: listed apart in the source
Description: as §1

[10] = Partition coefficient (logD) of Zwitterion (chloroform/water); assay type: physicochemical
[11] = Partition coefficient (logP) (chloroform); assay type: physicochemical
[12] = Log D of compound (Chloroform water medium); assay type: physicochemical; conditions: buffer
[13] = Partition coefficient (logD) of anion (chloroform/water); assay type: physicochemical

In the case of `Cc1cc(=O)oc2cc(O[C@@H]3O[C@H](C(=O)O)[C@@H](O)[C@H](O)[C@H]3O)ccc12`, the logD [1] is reported as -1.3, the logD [2] is reported as -0.39 and the pKa [3] is reported as 2.82. For the same compound, the logD [4] was -1.32.

`CC(=O)O[C@H]1C=C[C@H]2[C@H]3Cc4ccc(O)c5c4[C@@]2(CCN3C)[C@H]1O5` showed a logD [1] of -0.42, a logD [5] of less than -2 and a pKa [6] of 8.19. For the same compound, the pKa [7] was 9.55, the logD [2] was 1.55 and the logD [4] was 0.61.

With `CO[C@]12CC[C@@]3(C[C@@H]1[C@](C)(O)C(C)(C)C)[C@H]1Cc4ccc(O)c5c4[C@@]3(CCN1CC1CC1)[C@H]2O5` [BUPRENORPHINE] the logD [1] was 3.24, the logD [5] was 0.45 and the pKa [6] was 8.31. The pKa [8] was 9.62 and the logD [4] was 3.93.

For `COc1ccc2c3c1O[C@H]1[C@@H](O)C=C[C@H]4[C@@H](C2)N(C)CC[C@@]341` [CODEINE], the logD [5] was less than -2, the logD [4] was 0.22 and the logD [9] was 1.19.

In the case of `CC(=O)Oc1ccc2c3c1O[C@H]1[C@@H](OC(C)=O)C=C[C@H]4[C@@H](C2)N(C)CC[C@@]341` [DIACETYLMORPHINE], the logD [5] is reported as -0.94, the logD [2] is reported as 1.58 and the logD [4] is reported as 0.85.

For `CN1CC[C@]23c4c5ccc(O[C@@H]6O[C@H](C(=O)O)[C@@H](O)[C@H](O)[C@H]6O)c4O[C@H]2[C@@H](O)C=C[C@H]3[C@H]1C5` [MORPHINE 3-GLUCURONIDE], the logD [10] was -1.12, the logD [1] was -1.45 and the logD [5] was less than -2. For the same compound, the logD [2] was -1.1, the logP [11] was -1.12 and the logD [12] was -1.18. For the same compound, the logD [4] was -1.12 and the logD [13] was less than -2.

In the case of `CN1CC[C@]23c4c5ccc(O)c4O[C@H]2[C@@H](O[C@@H]2O[C@H](C(=O)O)[C@@H](O)[C@H](O)[C@H]2O)C=C[C@H]3[C@H]1C5` [MORPHINE GLUCURONIDE], the pKa [7] is reported as 9.42.

`COc1ccc2c3c1O[C@H]1[C@@H](O)C=C[C@H]4[C@@H](C2)NCC[C@@]341` [NORCODEINE] showed a logD [1] of less than -2, a logD [5] of less than -2 and a pKa [6] of 9.23. It also gave a logD [2] of 0.69 and a logD [4] of -1.26.
